According to US11344652B2, “Ionic liquids that sterilize and prevent biofilm formation in skin wound healing devices” (The Arizona Board of Regents on Behalf of Northern Arizona …, priority 2016, dated 2022):
Where “and” joins values, the source holds several entries; their conditions need not be identical. Equal values may be shown once.

Test: Physical characterization of CAGE at 25° C.
Format: physicochemical
Procedure: Physical characterization at 25° C. was in good agreement with published values and was as follows: density, 0.989±0.001 g mL^−1; and conductivity, 0.0427±0.0005 mS cm^−1.
Physicochemical properties were identical to those previously published confirming purity (Zakrewsky et al., PNAS, 2014, 111, 13313; incorporated by reference herein in its entirety, and for the disclosure referenced herein). CAGE has unique properties based upon the 1:1:1 ratio of cation:anion:protonated acid. This is important since it gives rise to the low conductivity determined for CAGE (0.043 mS cm^−1) and is a potential indicator of anti-biofilm efficacy but, also provides insight to minimized skin irritation potential.

## choline geranate [CAGE]
  conductivity: 0.0427±0.0005 mS cm^−1 and 0.043 mS cm^−1
  density: 0.989 ± 0.001 g/mL
